Measured values as given in patent US9771369B2, “Compounds and methods for kinase modulation, and indications therefor” (Plexxikon Inc., priority 2014, dated 2017).

What follows are molecules tested against c-Kit kinase (Homo sapiens (Human), UniProt P10721) (assay: c-Kit biochemical assay (AlphaScreen kinase activity)).
Method in brief: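 IC50 values come from 8-point, 1:3 compound titrations measuring inhibition of peptide phosphorylation by c-Kit (commercial or His-tagged E. coli-expressed) over 1 h at room temperature, read by AlphaScreen PY30/streptavidin beads. Low-ATP version: 10 μM ATP, 100 nM biotin-(E4Y)3; high-ATP version: 100 μM ATP, 30 nM biotin-(E4Y)10.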

c-Kit kinase, sequence (P10721 26-976): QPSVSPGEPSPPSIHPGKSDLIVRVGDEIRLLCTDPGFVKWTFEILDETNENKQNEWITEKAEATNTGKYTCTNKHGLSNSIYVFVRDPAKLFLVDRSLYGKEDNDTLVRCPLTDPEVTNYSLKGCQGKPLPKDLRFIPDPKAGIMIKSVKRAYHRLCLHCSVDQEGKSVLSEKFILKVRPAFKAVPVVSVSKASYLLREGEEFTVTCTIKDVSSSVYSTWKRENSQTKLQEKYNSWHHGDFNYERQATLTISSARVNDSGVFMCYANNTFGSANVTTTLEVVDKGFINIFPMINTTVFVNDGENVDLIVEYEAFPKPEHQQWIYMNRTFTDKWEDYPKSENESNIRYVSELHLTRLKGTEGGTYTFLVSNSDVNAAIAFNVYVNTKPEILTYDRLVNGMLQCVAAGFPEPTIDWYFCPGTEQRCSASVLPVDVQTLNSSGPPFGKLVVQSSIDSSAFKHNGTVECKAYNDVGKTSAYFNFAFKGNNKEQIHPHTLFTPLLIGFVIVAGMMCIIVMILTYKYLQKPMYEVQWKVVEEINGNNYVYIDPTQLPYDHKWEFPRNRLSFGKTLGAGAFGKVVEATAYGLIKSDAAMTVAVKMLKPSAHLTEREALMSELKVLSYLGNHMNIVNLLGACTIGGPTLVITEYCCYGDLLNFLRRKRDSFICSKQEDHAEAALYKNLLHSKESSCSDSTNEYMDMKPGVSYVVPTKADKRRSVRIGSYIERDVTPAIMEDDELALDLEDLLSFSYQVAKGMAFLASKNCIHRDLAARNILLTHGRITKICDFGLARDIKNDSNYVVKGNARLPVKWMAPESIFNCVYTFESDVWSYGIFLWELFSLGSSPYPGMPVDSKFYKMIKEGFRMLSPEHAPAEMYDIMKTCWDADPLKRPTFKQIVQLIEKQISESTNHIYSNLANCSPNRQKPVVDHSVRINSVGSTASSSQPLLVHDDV

Cc1nc(C2CCN(c3ncnc4[nH]c(-c5ccc(C#N)cc5)cc34)CC2)[nH]c1-c1ccccc1 [P-3047, 4-[4-[4-(4-methyl-5-phenyl-1H-imidazol-2-yl)-1-piperidyl]-7H-pyrrolo[2,3-d]pyrimidin-6-yl]benzonitrile] and Cc1nc(C2CCN(c3ncnc4[nH]c(-c5ccc(S(N)(=O)=O)cc5)cc34)CC2)[nH]c1-c1ccccc1 [P-3048, 4-[4-[4-(4-methyl-5-phenyl-1H-imidazol-2-yl)-1-piperidyl]-7H-pyrrolo[2,3-d]pyrimidin-6-yl]benzenesulfonamide] fall in the same range of IC50: 1 to 10 µM for the first, 1 to 10 µM for the second.

First: CNC(=O)c1cccc(-c2cc3c(N4CCC(c5nc(C)c(-c6ccccc6)[nH]5)CC4)ncnc3[nH]2)c1 [P-3049, N-methyl-3-[4-[4-(4-methyl-5-phenyl-1H-imidazol-2-yl)-1-piperidyl]-7H-pyrrolo[2,3-d]pyrimidin-6-yl]benzamide]
Second: CC(=O)Nc1cccc(-c2cc3c(N4CCC(c5nc(C)c(-c6ccccc6)[nH]5)CC4)ncnc3[nH]2)c1 [P-3071, N-[3-[4-[4-(4-methyl-5-phenyl-1H-imidazol-2-yl)-1-piperidyl]-7H-pyrrolo[2,3-d]pyrimidin-6-yl]phenyl]acetamide]
The IC50 of the first is higher: 1 to 10 µM for the first, 0.0001 to 1 µM for the second. The second is the more potent here.

Cc1nc(C2CCN(c3ncnc4[nH]c(-c5cnn(C(F)F)c5)cc34)CC2)[nH]c1-c1ccccc1 [P-3050, 6-[1-(difluoromethyl)pyrazol-4-yl]-4-[4-(4-methyl-5-phenyl-1H-imidazol-2-yl)-1-piperidyl]-7H-pyrrolo[2,3-d]pyrimidine] and Cc1ccc(-c2cc3c(N4CCC(c5nc(C)c(-c6ccccc6)[nH]5)CC4)ncnc3[nH]2)cn1 [P-3074, 4-[4-(4-methyl-5-phenyl-1H-imidazol-2-yl)-1-piperidyl]-6-(6-methyl-3-pyridyl)-7H-pyrrolo[2,3-d]pyrimidine] fall in the same range of IC50: 0.0001 to 1 µM for the first, 0.0001 to 1 µM for the second.

Compared with Cc1nc(C2CCN(c3ncnc4[nH]c(-c5cccc(S(N)(=O)=O)c5)cc34)CC2)[nH]c1-c1ccccc1 [P-3051, 3-[4-[4-(4-methyl-5-phenyl-1H-imidazol-2-yl)-1-piperidyl]-7H-pyrrolo[2,3-d]pyrimidin-6-yl]benzenesulfonamide], COc1ccc(-c2cc3c(N4CCC(c5nc(C)c(-c6ccccc6)[nH]5)CC4)ncnc3[nH]2)cn1 [P-3072, 6-(6-methoxy-3-pyridyl)-4-[4-(4-methyl-5-phenyl-1H-imidazol-2-yl)-1-piperidyl]-7H-pyrrolo[2,3-d]pyrimidine] is higher in IC50: 0.0001 to 1 µM for the first, 1 to 10 µM for the second. The first is the more potent here.

COc1ccc(-c2[nH]c(C3(C)CCN(c4ncnc5[nH]c(-c6ccc(F)cc6)cc45)CC3)nc2C)cc1C [P-3052, 6-(4-fluorophenyl)-4-[4-[5-(4-methoxy-3-methyl-phenyl)-4-methyl-1H-imidazol-2-yl]-4-methyl-1-piperidyl]-7H-pyrrolo[2,3-d]pyrimidine] and COc1ccc(-c2[nH]c(C3(C)CCN(c4ncnc5[nH]c(-c6ccc(C#N)cc6)cc45)CC3)nc2C)cc1C [P-3053, 4-[4-[4-[5-(4-methoxy-3-methyl-phenyl)-4-methyl-1H-imidazol-2-yl]-4-methyl-1-piperidyl]-7H-pyrrolo[2,3-d]pyrimidin-6-yl]benzonitrile] fall in the same range of IC50: 0.0001 to 1 µM for the first, 0.0001 to 1 µM for the second.

COc1cc(-c2cc3c(N4CCC(C)(c5nc(C)c(-c6ccc(OC)c(C)c6)[nH]5)CC4)ncnc3[nH]2)ccn1 [P-3054, 4-[4-[5-(4-methoxy-3-methyl-phenyl)-4-methyl-1H-imidazol-2-yl]-4-methyl-1-piperidyl]-6-(2-methoxy-4-pyridyl)-7H-pyrrolo[2,3-d]pyrimidine] and CCOc1ccc(-c2[nH]c(C3CCN(c4ncnc5[nH]c(-c6ccnc(OC)c6)cc45)CC3)nc2C)cc1C [P-3067, 4-[4-[5-(4-ethoxy-3-methyl-phenyl)-4-methyl-1H-imidazol-2-yl]-1-piperidyl]-6-(2-methoxy-4-pyridyl)-7H-pyrrolo[2,3-d]pyrimidine] fall in the same range of IC50: 0.0001 to 1 µM for the first, 0.0001 to 1 µM for the second.

CCC1(c2nc(C)c(-c3ccc(OC)cc3)[nH]2)CCN(c2ncnc3[nH]c(-c4ccc(F)cc4)cc23)CC1 [P-3055, 4-[4-ethyl-4-[5-(4-methoxyphenyl)-4-methyl-1H-imidazol-2-yl]-1-piperidyl]-6-(4-fluorophenyl)-7H-pyrrolo[2,3-d]pyrimidine] and CCC1(c2nc(C)c(-c3ccc(OC)c(C)c3)[nH]2)CCN(c2ncnc3[nH]c(-c4ccc(F)cc4)cc23)CC1 [P-3056, 4-[4-ethyl-4-[5-(4-methoxy-3-methyl-phenyl)-4-methyl-1H-imidazol-2-yl]-1-piperidyl]-6-(4-fluorophenyl)-7H-pyrrolo[2,3-d]pyrimidine] fall in the same range of IC50: 0.0001 to 1 µM for the first, 0.0001 to 1 µM for the second.

Cc1nc(C2(C)CCN(c3ncnc4[nH]c(-c5ccc(F)cc5)cc34)CC2)[nH]c1-c1ccc(F)cc1 [P-3057, 6-(4-fluorophenyl)-4-[4-[5-(4-fluorophenyl)-4-methyl-1H-imidazol-2-yl]-4-methyl-1-piperidyl]-7H-pyrrolo[2,3-d]pyrimidine] and Cc1nc(C2(C)CCN(c3ncnc4[nH]c(-c5ccc(F)cc5)cc34)CC2)[nH]c1-c1ccc(Cl)cc1 [P-3058, 4-[4-[5-(4-chlorophenyl)-4-methyl-1H-imidazol-2-yl]-4-methyl-1-piperidyl]-6-(4-fluorophenyl)-7H-pyrrolo[2,3-d]pyrimidine] fall in the same range of IC50: 0.0001 to 1 µM for the first, 0.0001 to 1 µM for the second.

CCc1ccc(-c2[nH]c(C3CCN(c4ncnc5[nH]c(-c6ccnc(OC)c6)cc45)CC3)nc2C)cc1 [P-3059, 4-[4-[5-(4-ethylphenyl)-4-methyl-1H-imidazol-2-yl]-1-piperidyl]-6-(2-methoxy-4-pyridyl)-7H-pyrrolo[2,3-d]pyrimidine] and CCc1ccc(-c2[nH]c(C3CCN(c4ncnc5[nH]c(-c6ccc(F)cc6)cc45)CC3)nc2C)cc1 [P-3060, 4-[4-[5-(4-ethylphenyl)-4-methyl-1H-imidazol-2-yl]-1-piperidyl]-6-(4-fluorophenyl)-7H-pyrrolo[2,3-d]pyrimidine] fall in the same range of IC50: 0.0001 to 1 µM for the first, 0.0001 to 1 µM for the second.

CCc1ccc(-c2[nH]c(C3CCN(c4ncnc5[nH]c(-c6ccc(C#N)cc6)cc45)CC3)nc2C)cc1 [P-3061, 4-[4-[4-[5-(4-ethylphenyl)-4-methyl-1H-imidazol-2-yl]-1-piperidyl]-7H-pyrrolo[2,3-d]pyrimidin-6-yl]benzonitrile] and CCOc1ccc(-c2[nH]c(C3CCN(c4ncnc5[nH]c(-c6ccc(C#N)cc6)cc45)CC3)nc2C)cc1C [P-3066, 4-[4-[4-[5-(4-ethoxy-3-methyl-phenyl)-4-methyl-1H-imidazol-2-yl]-1-piperidyl]-7H-pyrrolo[2,3-d]pyrimidin-6-yl]benzonitrile] fall in the same range of IC50: 0.0001 to 1 µM for the first, 0.0001 to 1 µM for the second.

Cc1ccc(-c2[nH]c(C3CCN(c4ncnc5[nH]c(-c6ccc(F)cc6)cc45)CC3)nc2C)cc1 [P-3062, 6-(4-fluorophenyl)-4-[4-[4-methyl-5-(p-tolyl)-1H-imidazol-2-yl]-1-piperidyl]-7H-pyrrolo[2,3-d]pyrimidine] and CCOc1ccc(-c2[nH]c(C3CCN(c4ncnc5[nH]c(-c6ccc(F)cc6)cc45)CC3)nc2C)cc1C [P-3065, 4-[4-[5-(4-ethoxy-3-methyl-phenyl)-4-methyl-1H-imidazol-2-yl]-1-piperidyl]-6-(4-fluorophenyl)-7H-pyrrolo[2,3-d]pyrimidine] fall in the same range of IC50: 0.0001 to 1 µM for the first, 0.0001 to 1 µM for the second.

COc1ccc(-c2[nH]c(C3(C)CCN(c4ncnc5[nH]c(C)cc45)CC3)nc2C)cc1 [P-3063, 4-[4-[5-(4-methoxyphenyl)-4-methyl-1H-imidazol-2-yl]-4-methyl-1-piperidyl]-6-methyl-7H-pyrrolo[2,3-d]pyrimidine] and Cc1cc2c(N3CCC(C)(c4nc(C)c(-c5ccc(F)cc5)[nH]4)CC3)ncnc2[nH]1 [P-3064, 4-[4-[5-(4-fluorophenyl)-4-methyl-1H-imidazol-2-yl]-4-methyl-1-piperidyl]-6-methyl-7H-pyrrolo[2,3-d]pyrimidine] fall in the same range of IC50: 1 to 10 µM for the first, 1 to 10 µM for the second.

Cc1nc(C2CCN(c3ncnc4[nH]c(-c5ccc(F)cc5)cc34)CC2)[nH]c1-c1ccc2c(c1)OCO2 [P-3068, 4-[4-[5-(1,3-benzodioxol-5-yl)-4-methyl-1H-imidazol-2-yl]-1-piperidyl]-6-(4-fluorophenyl)-7H-pyrrolo[2,3-d]pyrimidine] and Cc1nc(C2CCN(c3ncnc4[nH]c(-c5ccc(C#N)cc5)cc34)CC2)[nH]c1-c1ccc2c(c1)OCO2 [P-3069, 4-[4-[4-[5-(1,3-benzodioxol-5-yl)-4-methyl-1H-imidazol-2-yl]-1-piperidyl]-7H-pyrrolo[2,3-d]pyrimidin-6-yl]benzonitrile] fall in the same range of IC50: 0.0001 to 1 µM for the first, 0.0001 to 1 µM for the second.

COc1cc(-c2cc3c(N4CCC(c5nc(C)c(-c6ccc7c(c6)OCO7)[nH]5)CC4)ncnc3[nH]2)ccn1 [P-3070, 4-[4-[5-(1,3-benzodioxol-5-yl)-4-methyl-1H-imidazol-2-yl]-1-piperidyl]-6-(2-methoxy-4-pyridyl)-7H-pyrrolo[2,3-d]pyrimidine] and CCOc1cc(-c2cc3c(N4CCC(c5nc(C)c(-c6ccccc6)[nH]5)CC4)ncnc3[nH]2)ccn1 [P-3075, 6-(2-ethoxy-4-pyridyl)-4-[4-(4-methyl-5-phenyl-1H-imidazol-2-yl)-1-piperidyl]-7H-pyrrolo[2,3-d]pyrimidine] fall in the same range of IC50: 0.0001 to 1 µM for the first, 0.0001 to 1 µM for the second.

Cc1nn(C)cc1-c1cc2c(N3CCC(c4nc(C)c(-c5ccccc5)[nH]4)CC3)ncnc2[nH]1 [P-3073, 6-(1,3-dimethylpyrazol-4-yl)-4-[4-(4-methyl-5-phenyl-1H-imidazol-2-yl)-1-piperidyl]-7H-pyrrolo[2,3-d]pyrimidine] and Cc1nc(C2CCN(c3ncnc4[nH]c(-c5ccnc(N6CCC(C)CC6)c5)cc34)CC2)[nH]c1-c1ccccc1 [P-3077, 4-[4-(4-methyl-5-phenyl-1H-imidazol-2-yl)-1-piperidyl]-6-[2-(4-methyl-1-piperidyl)-4-pyridyl]-7H-pyrrolo[2,3-d]pyrimidine] fall in the same range of IC50: 0.0001 to 1 µM for the first, 0.0001 to 1 µM for the second.

Molecule Cc1nc(C2CCN(c3ncnc4[nH]c(-c5ccnc(N6CCOCC6)c5)cc34)CC2)[nH]c1-c1ccccc1 [P-3076, 4-[4-[4-[4-(4-methyl-5-phenyl-1H-imidazol-2-yl)-1-piperidyl]-7H-pyrrolo[2,3-d]pyrimidin-6-yl]-2-pyridyl]morpholine] has an IC50 of 0.0001 to 1 µM.
